Measurements reported in PubChem BioAssay (NCI).
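Results reflect a 48-hour exposure of cells in 96-well plates to compound at five concentrations. GI50 = concentration required for 50% inhibition of growth. TGI marks complete inhibition of growth.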

Tests used:
Experiment in all cases: NCI anticancer screen, dose series, 48 h
KM12 colon = tested on: KM12 colon
HS 578T breast = tested on: HS 578T breast
SK-OV-3 ovarian = tested on: SK-OV-3 ovarian
NCI-H226 lung = tested on: NCI-H226 lung
786-0 renal = tested on: 786-0 renal
SNB-19 CNS = tested on: SNB-19 CNS
HOP-62 NSCLC = tested on: HOP-62 NSCLC
A498 renal = tested on: A498 renal
MDA-MB-435 = tested on: MDA-MB-435
SR leukemia = tested on: SR leukemia
MALME-3M melanoma = tested on: MALME-3M melanoma
SF-295 CNS = tested on: SF-295 CNS
RPMI-8226 leukemia = tested on: RPMI-8226 leukemia
NCI-H522 lung = tested on: NCI-H522 lung
SK-MEL-5 melanoma = tested on: SK-MEL-5 melanoma
T-47D breast = tested on: T-47D breast
HCC-2998 colon = tested on: HCC-2998 colon
SN12C renal = tested on: SN12C renal
SF-539 CNS = tested on: SF-539 CNS
UACC-62 melanoma = tested on: UACC-62 melanoma
A549 NSCLC = tested on: A549 NSCLC
DU-145 prostate = tested on: DU-145 prostate
CAKI-1 renal = tested on: CAKI-1 renal
HCT-15 colon = tested on: HCT-15 colon
HL-60(TB) leukemia = tested on: HL-60(TB) leukemia
NCI/ADR-RES ovarian = tested on: NCI/ADR-RES ovarian
HCT-116 colon = tested on: HCT-116 colon
PC-3 prostate = tested on: PC-3 prostate
HOP-92 NSCLC = tested on: HOP-92 NSCLC
M14 melanoma = tested on: M14 melanoma
K-562 leukemia = tested on: K-562 leukemia
OVCAR-4 ovarian = tested on: OVCAR-4 ovarian
COLO 205 colon = tested on: COLO 205 colon
HT29 colon = tested on: HT29 colon
OVCAR-8 ovarian = tested on: OVCAR-8 ovarian
MOLT-4 leukemia = tested on: MOLT-4 leukemia
SK-MEL-28 melanoma = tested on: SK-MEL-28 melanoma
IGROV1 ovarian = tested on: IGROV1 ovarian
SF-268 CNS = tested on: SF-268 CNS
NCI-H23 lung = tested on: NCI-H23 lung
UO-31 renal = tested on: UO-31 renal
BT-549 breast = tested on: BT-549 breast
MDA-MB-231 breast = tested on: MDA-MB-231 breast
CCRF-CEM leukemia = tested on: CCRF-CEM leukemia
LOX IMVI melanoma = tested on: LOX IMVI melanoma
OVCAR-5 ovarian = tested on: OVCAR-5 ovarian
UACC-257 melanoma = tested on: UACC-257 melanoma
SW-620 colon = tested on: SW-620 colon
SK-MEL-2 melanoma = tested on: SK-MEL-2 melanoma
OVCAR-3 ovarian = tested on: OVCAR-3 ovarian
MCF7 breast = tested on: MCF7 breast
SNB-75 CNS = tested on: SNB-75 CNS
TK-10 renal = tested on: TK-10 renal
RXF 393 renal = tested on: RXF 393 renal
NCI-H460 lung = tested on: NCI-H460 lung
U251 CNS = tested on: U251 CNS
EKVX NSCLC = tested on: EKVX NSCLC
ACHN renal = tested on: ACHN renal

CN1CCN(Cc2ccc(NC(=O)c3cncc(C#Cc4cnc5ccc(O[C@@H]6CCOC6)nn45)c3)cc2C(F)(F)F)CC1
GI50 (KM12 colon): 5 nM | TGI (KM12 colon): 539 nM | GI50 (HS 578T breast): 127 nM | TGI (HS 578T breast): 565 nM | GI50 (SK-OV-3 ovarian): 449 nM | TGI (SK-OV-3 ovarian): 1120 nM | GI50 (NCI-H226 lung): 47.8 nM | TGI (NCI-H226 lung): 911 nM | GI50 (786-0 renal): 265 nM | TGI (786-0 renal): 833 nM | GI50 (SNB-19 CNS): 301 nM | TGI (SNB-19 CNS): 1220 nM | GI50 (HOP-62 NSCLC): 176 nM | TGI (HOP-62 NSCLC): 641 nM | GI50 (A498 renal): 606 nM | TGI (A498 renal): 1250 nM | GI50 (MDA-MB-435): 125 nM | TGI (MDA-MB-435): 653 nM | GI50 (SR leukemia): 82.3 nM | TGI (SR leukemia): 490 nM | GI50 (MALME-3M melanoma): 61.3 nM | TGI (MALME-3M melanoma): 294 nM | GI50 (SF-295 CNS): 454 nM | TGI (SF-295 CNS): 1180 nM | GI50 (RPMI-8226 leukemia): 265 nM | TGI (RPMI-8226 leukemia): 1260 nM | GI50 (NCI-H522 lung): 107 nM | TGI (NCI-H522 lung): 277 nM | GI50 (SK-MEL-5 melanoma): 586 nM | TGI (SK-MEL-5 melanoma): 1220 nM | GI50 (T-47D breast): 556 nM | TGI (T-47D breast): 1310 nM | GI50 (HCC-2998 colon): 260 nM | TGI (HCC-2998 colon): 886 nM | GI50 (SN12C renal): 120 nM | TGI (SN12C renal): 636 nM | GI50 (SF-539 CNS): 99.8 nM | TGI (SF-539 CNS): 715 nM | GI50 (UACC-62 melanoma): 165 nM | TGI (UACC-62 melanoma): 809 nM | GI50 (A549 NSCLC): 195 nM | TGI (A549 NSCLC): 693 nM | GI50 (DU-145 prostate): 187 nM | TGI (DU-145 prostate): 642 nM | GI50 (CAKI-1 renal): 122 nM | TGI (CAKI-1 renal): 596 nM | GI50 (HCT-15 colon): 161 nM | TGI (HCT-15 colon): 639 nM | GI50 (HL-60(TB) leukemia): 75.2 nM | TGI (HL-60(TB) leukemia): 364 nM | GI50 (NCI/ADR-RES ovarian): 676 nM | TGI (NCI/ADR-RES ovarian): 1910 nM | GI50 (HCT-116 colon): 64.9 nM | TGI (HCT-116 colon): 454 nM | GI50 (PC-3 prostate): 277 nM | TGI (PC-3 prostate): 1210 nM | GI50 (HOP-92 NSCLC): 27.3 nM | TGI (HOP-92 NSCLC): 117 nM | GI50 (M14 melanoma): 66.2 nM | TGI (M14 melanoma): 181 nM | GI50 (K-562 leukemia): 5 nM | TGI (K-562 leukemia): 1790 nM | GI50 (OVCAR-4 ovarian): 155 nM | TGI (OVCAR-4 ovarian): 940 nM | GI50 (COLO 205 colon): 109 nM | TGI (COLO 205 colon): 220 nM | GI50 (HT29 colon): 111 nM | TGI (HT29 colon): 602 nM | GI50 (OVCAR-8 ovarian): 160 nM | TGI (OVCAR-8 ovarian): 634 nM | GI50 (MOLT-4 leukemia): 81.8 nM | TGI (MOLT-4 leukemia): 1320 nM | GI50 (SK-MEL-28 melanoma): 186 nM | TGI (SK-MEL-28 melanoma): 813 nM | GI50 (IGROV1 ovarian): 89.4 nM | TGI (IGROV1 ovarian): 587 nM | GI50 (SF-268 CNS): 158 nM | TGI (SF-268 CNS): 562 nM | GI50 (NCI-H23 lung): 178 nM | TGI (NCI-H23 lung): 729 nM | GI50 (UO-31 renal): 173 nM | TGI (UO-31 renal): 682 nM | GI50 (BT-549 breast): 646 nM | TGI (BT-549 breast): 1290 nM | GI50 (MDA-MB-231 breast): 82.5 nM | TGI (MDA-MB-231 breast): 475 nM | GI50 (CCRF-CEM leukemia): 75.1 nM | TGI (CCRF-CEM leukemia): 3050 nM | GI50 (LOX IMVI melanoma): 139 nM | TGI (LOX IMVI melanoma): 635 nM | GI50 (OVCAR-5 ovarian): 223 nM | TGI (OVCAR-5 ovarian): 883 nM | GI50 (UACC-257 melanoma): 531 nM | TGI (UACC-257 melanoma): 1240 nM | GI50 (SW-620 colon): 153 nM | TGI (SW-620 colon): 623 nM | GI50 (SK-MEL-2 melanoma): 114 nM | TGI (SK-MEL-2 melanoma): 321 nM | GI50 (OVCAR-3 ovarian): 194 nM | TGI (OVCAR-3 ovarian): 768 nM | GI50 (MCF7 breast): 80.4 nM | TGI (MCF7 breast): 580 nM | GI50 (SNB-75 CNS): 124 nM | TGI (SNB-75 CNS): 510 nM | GI50 (TK-10 renal): 177 nM | TGI (TK-10 renal): 632 nM | GI50 (RXF 393 renal): 143 nM | TGI (RXF 393 renal): 405 nM | GI50 (NCI-H460 lung): 182 nM | TGI (NCI-H460 lung): 703 nM | GI50 (U251 CNS): 270 nM | TGI (U251 CNS): 933 nM | GI50 (EKVX NSCLC): 288 nM | TGI (EKVX NSCLC): 942 nM | GI50 (ACHN renal): 171 nM | TGI (ACHN renal): 670 nM
